{"source": "paper PMC6934184", "about": "“Selective DNA-PKcs inhibition extends the therapeutic index of localized radiotherapy and chemotherapy” (The Journal of Clinical Investigation, 2019)", "target": "T1, ERBB4 (HER4) (Homo sapiens, UniProt Q15303)", "T1 construct": "purchased Thermo Fisher Scientific (Life Technologies) SelectScreen", "T1 sequence (Q15303 26-1308)": "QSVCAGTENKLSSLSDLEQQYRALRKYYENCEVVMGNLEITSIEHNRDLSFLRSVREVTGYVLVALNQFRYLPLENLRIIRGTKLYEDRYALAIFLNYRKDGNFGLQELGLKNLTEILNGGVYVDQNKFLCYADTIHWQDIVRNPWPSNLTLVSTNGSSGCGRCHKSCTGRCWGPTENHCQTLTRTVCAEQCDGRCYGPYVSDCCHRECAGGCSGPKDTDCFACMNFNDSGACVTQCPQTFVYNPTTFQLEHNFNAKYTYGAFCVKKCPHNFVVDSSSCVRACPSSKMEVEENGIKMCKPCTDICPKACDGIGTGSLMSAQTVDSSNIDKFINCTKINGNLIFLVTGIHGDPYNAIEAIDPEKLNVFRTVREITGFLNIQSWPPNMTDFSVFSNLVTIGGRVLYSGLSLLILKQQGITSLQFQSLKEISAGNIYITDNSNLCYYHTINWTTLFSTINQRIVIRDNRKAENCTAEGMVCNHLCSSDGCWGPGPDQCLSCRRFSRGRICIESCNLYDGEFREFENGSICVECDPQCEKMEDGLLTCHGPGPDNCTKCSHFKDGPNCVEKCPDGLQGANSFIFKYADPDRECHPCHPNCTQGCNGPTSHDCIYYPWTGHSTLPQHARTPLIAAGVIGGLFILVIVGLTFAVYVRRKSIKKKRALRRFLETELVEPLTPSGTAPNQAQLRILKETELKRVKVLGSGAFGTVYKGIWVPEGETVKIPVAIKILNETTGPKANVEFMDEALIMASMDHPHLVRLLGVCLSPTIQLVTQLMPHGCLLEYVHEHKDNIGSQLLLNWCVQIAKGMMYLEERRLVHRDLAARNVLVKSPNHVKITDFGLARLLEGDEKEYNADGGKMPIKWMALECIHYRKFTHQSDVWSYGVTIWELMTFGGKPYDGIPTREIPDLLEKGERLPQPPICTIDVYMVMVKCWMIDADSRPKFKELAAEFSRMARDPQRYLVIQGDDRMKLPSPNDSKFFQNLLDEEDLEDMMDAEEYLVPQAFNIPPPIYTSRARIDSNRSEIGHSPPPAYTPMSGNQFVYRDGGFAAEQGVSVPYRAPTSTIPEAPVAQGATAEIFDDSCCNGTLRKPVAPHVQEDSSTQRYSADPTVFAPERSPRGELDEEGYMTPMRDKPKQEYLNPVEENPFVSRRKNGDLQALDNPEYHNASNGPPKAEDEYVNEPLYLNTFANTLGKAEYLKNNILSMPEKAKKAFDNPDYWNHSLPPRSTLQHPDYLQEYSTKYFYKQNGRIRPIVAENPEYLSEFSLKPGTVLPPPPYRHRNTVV", "experiment": "SelectScreen Z'LYTE", "format": "biochemical", "in_short": "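Percent values come from Thermo SelectScreen profiling of NU5455, combining activity and binding assays. CSF1R was run in Z'LYTE format at Km app ATP, and CAMK1 in Adapta format with ATP listed at 10.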"}
{"compound": "CN(C(=O)CN1CCOCC1)c1ccc2sc3c(-c4cccc5c(=O)cc(N6CC7CCC(C6)O7)oc45)cccc3c2c1", "note": "[NU5455]", "values": [{"measurement": "inhibition at 1 µM", "result": -2.8, "unit": "%"}]}
